Measured values published in the supplement of paper PMC10307832.

Columns and labels:
Experiment in all cases: relative viability (nuclei count vs DMSO), 5 days (fraction); higher = more cells survive
CX-5461 = compound: Cc1cnc(CNC(=O)c2c(=O)c3ccc(N4CCCN(C)CC4)nc3n3c2sc2ccccc23)cn1 [CX-5461]
Procedure, shortened: (§1)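 Lung cancer cell lines in 1536-well plates were exposed by pinning to five library-drug doses (not always all listed) √10 apart, following an overnight hold at 37 °C. MetaXpress counted Hoechst-stained nuclei from 4× images taken after 5 days without medium change. Viability is the median ratio of treated-well to vehicle-well nuclei across plates. Plates required control CV below 25% and at least one doubling.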

IMD-0354 = compound: O=C(Nc1cc(C(F)(F)F)cc(C(F)(F)F)c1)c1cc(Cl)ccc1O [IMD-0354]
Procedure, shortened: as §1

CX-5461 + Navitoclax = compound: Cc1cnc(CNC(=O)c2c(=O)c3ccc(N4CCCN(C)CC4)nc3n3c2sc2ccccc23)cn1 [CX-5461] + CC1(C)CCC(c2ccc(Cl)cc2)=C(CN2CCN(c3ccc(C(=O)NS(=O)(=O)c4ccc(N[C@H](CCN5CCOCC5)CSc5ccccc5)c(S(=O)(=O)C(F)(F)F)c4)cc3)CC2)C1 [Navitoclax] (partner 0.5 µM)
Procedure, shortened: (§2)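 Lung cancer cell lines were seeded in 1536-well plates and dosed by pin tool the next day, with either a single drug or a fixed anchor-drug dose combined with five library-drug doses (not always all listed) spaced in √10 steps. Five days later, one step fixed the cells and stained their nuclei (final 0.05% Triton X-100, 1% formaldehyde, 1 ug/ml Hoechst), and nuclei were counted on 4× images. Relative viability is the nuclei count in treated wells divided by the count in vehicle wells, and each value is the median of duplicate plates.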

CX-5461 + Foretinib = compound: Cc1cnc(CNC(=O)c2c(=O)c3ccc(N4CCCN(C)CC4)nc3n3c2sc2ccccc23)cn1 [CX-5461] + COc1cc2c(Oc3ccc(NC(=O)C4(C(=O)Nc5ccc(F)cc5)CC4)cc3F)ccnc2cc1OCCCN1CCOCC1 [Foretinib] (partner 0.25 µM)
Procedure, shortened: as §2

Row | Cell Line | relative viability (CX-5461; 0.01 µM) | relative viability (CX-5461; 0.03162 µM) | relative viability (CX-5461; 0.1 µM) | relative viability (CX-5461; 0.3162 µM) | relative viability (CX-5461; 1 µM) | relative viability (IMD-0354; 0.04 µM) | relative viability (IMD-0354; 0.1265 µM) | relative viability (IMD-0354; 0.4 µM) | relative viability (IMD-0354; 1.265 µM) | relative viability (IMD-0354; 4 µM) | relative viability (CX-5461 + Navitoclax; first compound 0.01 µM) | relative viability (CX-5461 + Navitoclax; first compound 0.03162 µM) | relative viability (CX-5461 + Navitoclax; first compound 0.1 µM) | relative viability (CX-5461 + Navitoclax; first compound 0.3162 µM) | relative viability (CX-5461 + Navitoclax; first compound 1 µM) | relative viability (CX-5461 + Foretinib; first compound 0.01 µM) | relative viability (CX-5461 + Foretinib; first compound 0.03162 µM) | relative viability (CX-5461 + Foretinib; first compound 0.1 µM) | relative viability (CX-5461 + Foretinib; first compound 0.3162 µM) | relative viability (CX-5461 + Foretinib; first compound 1 µM)
1 | NCI-H1703 | 0.955 | 1.06 | 0.91 | 1.09 | 0.569 | 1.11 | 1.02 | 0.507 | 0.282 | 0.14 | 1.22 | 1.28 | 0.932 | 1.13 | 0.313 | 0.359 | 0.311 | 0.357 | 0.363 | 0.28
2 | PC-3 [JPC-3] | 1.03 | 1.05 | 1.11 | 1.01 | 0.974 | 1.06 | 1.03 | 0.829 | 0.341 | 0.306 | 0.86 | 0.861 | 0.746 | 0.784 | 0.821 | 1.07 | 1.06 | 0.984 | 0.986 | 1.01
3 | BEN | 1.04 | 1 | 1.06 | 0.979 | 0.937 | 1.22 | 0.903 | 0.64 | 0.463 | 0.277 | 0.0792 | 0.0627 | 0.052 | 0.0668 | 0.066 | 0.781 | 0.606 | 0.739 | 0.525 | 0.636
4 | NCI-H1666 | 0.985 | 0.992 | 0.949 | 0.904 | 0.808 | 0.954 | 0.922 | 0.82 | 0.611 | 0.523 | 0.967 | 1 |  | 0.766 | 0.397 | 1.02 | 0.969 | 0.962 | 0.916 | 0.692
5 | LC-2-ad | 0.981 | 1.02 | 0.955 | 0.978 | 0.749 | 0.948 | 0.976 | 0.579 | 0.193 | 0.17 | 0.449 | 0.533 | 0.434 | 0.553 | 0.362 | 0.919 | 1.01 | 0.835 | 0.88 | 0.504
6 | SW 1573 | 0.94 | 0.978 | 0.689 | 0.656 | 0.33 | 1.15 | 0.916 | 0.548 | 0.22 | 0.13 | 0.974 | 0.998 | 1.05 | 0.872 | 1.12 | 0.887 | 0.83 | 0.98 | 0.397 | 0.531
7 | ChaGo-K-1 | 1.02 | 0.967 | 1.04 | 0.571 | 0.552 | 1.12 | 1.08 | 0.751 | 0.339 | 0.267 | 1.32 | 0.947 | 0.752 | 0.413 | 0.618 | 0.927 | 0.981 | 0.917 | 0.597 | 0.883
8 | COR-L 105 | 0.933 | 0.894 | 0.82 | 0.607 | 0.508 | 1.05 | 0.832 | 0.738 | 0.463 | 0.293 | 0.891 | 0.734 | 0.768 | 0.801 | 0.689 | 1.13 | 1.05 | 1.11 | 0.813 | 0.549
9 | NCI-H1975 | 1.02 | 0.974 | 0.905 | 0.961 | 0.714 | 0.949 | 0.986 | 0.625 | 0.211 | 0.212 | 1.29 | 1.1 | 1.09 | 1.25 | 0.871 | 0.971 | 0.896 | 1.03 | 0.981 | 0.521
10 | Calu-6 | 1.08 | 1.07 | 1.03 | 0.987 | 0.385 | 0.947 | 0.913 | 0.648 | 0.181 | 0.125 | 0.659 | 0.872 | 0.743 | 0.852 | 0.157 | 0.837 | 0.925 | 0.807 | 0.844 | 0.698
11 | NCI-H1993 | 1.06 | 1.08 | 1.01 | 0.952 | 0.993 | 0.939 | 0.89 | 0.648 | 0.555 | 0.567 | 0.946 | 1 | 0.887 | 0.871 | 0.922 | 0.738 | 0.779 | 0.813 | 0.746 | 0.788
12 | RERF-LC-KJ | 0.96 | 1.05 | 0.943 | 0.946 | 0.879 | 1.09 | 0.992 | 0.635 | 0.384 | 0.234 | 0.95 | 0.969 | 1.17 | 0.887 | 0.837 | 0.893 | 0.964 | 0.998 | 0.765 | 0.815
13 | NCI-H23 | 1.05 | 1.04 | 0.856 | 0.773 | 0.544 | 1.14 | 0.942 | 0.518 | 0.195 | 0.2 | 0.958 | 0.859 | 0.986 | 0.839 | 0.726 | 0.874 | 1.15 | 0.98 | 0.938 | 1.08
14 | HCC-366 | 1.11 | 1.02 | 1 | 1.02 | 0.322 | 1.04 | 1.09 | 0.543 | 0.111 | 0.0465 | 1.04 | 1.06 | 1.16 | 1.1 | 1.11 | 1.03 | 0.913 | 0.924 | 0.756 | 0.931
15 | EMC-BAC-2 | 0.962 | 0.909 | 0.769 | 0.818 | 0.488 | 1.02 | 0.962 | 0.675 | 0.425 | 0.383 | 1.17 | 1.29 | 1.21 | 1.13 | 1.14 | 0.988 | 1.13 | 1.06 | 0.928 | 0.885
16 | NCI-H2405 | 1.03 | 0.995 | 1.01 | 0.897 | 0.864 | 1.08 | 1.09 | 0.7 | 0.278 | 0.332 | 0.957 | 0.92 | 0.997 | 0.431 | 0.743 | 1.03 | 1.08 | 1.04 | 0.952 | 1.03
